Measurements from patent publication US10053457B2, “Hydroxyalkyl-piperazine derivatives as CXCR3 receptor modulators” (IDORSIA PHARMACEUTICALS LTD, priority 2015, dated 2018).
pIC50: −log10 of the molar value.

Key:
Type in all cases: cell-based
[1] = molecular target: human CXCR3A (Homo sapiens (Human), UniProt P49682); test: FLIPR assay (CXCL10-induced calcium signal); conditions: CHO-K1 cells expressing human CXCR3A coupled to Galpha(16); CXCL10 agonist 20 nM; mean values
Description: (§1) In the case where IC50 values have been determined several times for the same compound, mean values are given.

[2] = molecular target: CXCR3 (Homo sapiens (Human), UniProt P49682); test: Receptor internalization assay in human whole blood (CXCR3 surface expression on CD4 positive cells, CXCL10); conditions: final CXCL10 9 nM, 30 min at 37° C., mean values
Protocol: Diluted compounds are then mixed with an equal volume of CXCL10 (Peprotech) diluted in PBS. Anticoagulated venous human whole blood is added to the mixture, which is then incubated in a CO2 incubator at 37° C. to allow for ligand mediated receptor internalization (final CXCL10 concentration is 9 nM). After 30 min, the blood is mixed with fluorescently labeled CXCR3 and CD4 specific antibodies (Becton Dickinson) and incubated on ice for 10 minutes. Samples are then mixed with BD FACS Lysing Solution (Becton Dickinson) in order to eliminate red blood cells. After washing the cells with PBS containing 0.5% BSA, the samples are then analyzed in a flow cytometer (FACS Canto II, Becton Dickinson). For data analysis using FACSDiva software (Becton Dickinson), the mean fluorescence corresponding to CXCR3 cell surface expression was determined on CD4 positive cells. The program GraphPad Prism or similar software is used to fit the data to a single site dose response curve and to calculate IC50 values.
as §1

[3] = molecular target: hERG K channel (Homo sapiens (Human), UniProt Q12809); test: hERG Q-Patch assay; conditions: CHO cells expressing hERG, K+ tail current 3 min after application, mean of two or three experiments
Protocol: Compounds are evaluated for block of the hERG K channel using CHO cells stably expressing the hERG gene (accession number U04270, bSys, Witterswil, Switzerland) and the QPatch robotic platform (Sophion, Ballerup, Denmark) in single-cell mode at room temperature. Cells are grown in culture flasks at 37° C. in 5% CO2, in culture medium (Ham's F-12 Nutrient Mixture, Invitrogen 21765-029) supplemented with 9% (v/v) fetal calf serum, 0.9% Penicillin/Streptomycin (10,000 U/mL, Invitrogen 15140148), 100 μg/mL Hygromycin B (Invitrogen 10687010). When the cells are ˜80% confluent (every 2-3 days), they are either split for further culture or used for electrophysiology. For further culture, cells are detached with 0.25% Trypsin EDTA solution (Invitrogen 25200-056) and a fraction of the cells (10-30%) is reseeded in culture medium. For electrophysiology, on the experimental day, cells are detached with 0.25% Trypsin EDTA solution and all cells are suspended in suspension medium (293 SFM II, Invitrogen 11686-029) supplemented with 20 mM HEPES and 0.04 mg/mL Trypsin inhibitor. Cells are kept in suspension medium at 32-35° C. in the QPatch robot until use, at which time aliquots are transferred to the extracellular solution (in mM: NaCl 150; KCl 4; CaCl2 1.2; MgCl2 1; HEPES 10; pH 7.4 with NaOH) containing 0.3% v/v DMSO and applied to the test plates. K^+ currents are measured with the patch-voltage-clamp technique in the whole-cell configuration with the internal solution (in mM: KCl, 140; NaCl, 10; MgCl2, 1; HEPES, 10: EGTA, 5; pH=7.2 with KOH). Currents are low-pass filtered using the internal Bessel filter of the QPatch robot with a cut-off frequency of 2 kHz and are digitized at 10 kHz. K^+ tail currents are produced from a holding voltage of −80 mV by a 500-ms depolarization to +20 mV followed by a 500-ms repolarization to −40 mV; tail current amplitudes are measured at the end of the repolarization to −40 mV. The pulse pattern is repeated every 10 sec during the experiment, baseline K^+ current is measured after 3 min in extracellular solution, test-solution containing compound is then applied, and K^+ current in presence of compound is measured 3 minutes after application to the cells. The respective test-solution is prepared by (1) dissolving the test-compound in pure DMSO, (2) diluting this DMSO solution in extracellular solution, and (3) adding further DMSO, such that the final test-solution has a concentration of either 300 nM or 3000 nM of the test-compound and contains 0.3% v/v DMSO. Compound effects are quantified as % block by dividing the current in presence of compound by the baseline current; two or three experiments are performed for each compound and the final value represents the mean of the results of each experiment.

Sequence of CXCR3 (P49682 whole entry): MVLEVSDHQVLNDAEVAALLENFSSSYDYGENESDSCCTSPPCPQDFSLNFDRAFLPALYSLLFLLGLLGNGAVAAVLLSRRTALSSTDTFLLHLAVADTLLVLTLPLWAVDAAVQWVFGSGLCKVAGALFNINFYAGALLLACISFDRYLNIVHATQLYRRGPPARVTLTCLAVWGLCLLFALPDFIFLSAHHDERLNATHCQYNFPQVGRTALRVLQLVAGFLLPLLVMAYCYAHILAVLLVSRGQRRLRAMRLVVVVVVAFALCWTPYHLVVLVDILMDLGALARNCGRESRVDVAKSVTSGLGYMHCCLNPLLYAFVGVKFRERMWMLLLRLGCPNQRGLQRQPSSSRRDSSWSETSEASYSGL
Sequence of human CXCR3A (P49682 whole entry): as above
Sequence of hERG K channel (Q12809 whole entry): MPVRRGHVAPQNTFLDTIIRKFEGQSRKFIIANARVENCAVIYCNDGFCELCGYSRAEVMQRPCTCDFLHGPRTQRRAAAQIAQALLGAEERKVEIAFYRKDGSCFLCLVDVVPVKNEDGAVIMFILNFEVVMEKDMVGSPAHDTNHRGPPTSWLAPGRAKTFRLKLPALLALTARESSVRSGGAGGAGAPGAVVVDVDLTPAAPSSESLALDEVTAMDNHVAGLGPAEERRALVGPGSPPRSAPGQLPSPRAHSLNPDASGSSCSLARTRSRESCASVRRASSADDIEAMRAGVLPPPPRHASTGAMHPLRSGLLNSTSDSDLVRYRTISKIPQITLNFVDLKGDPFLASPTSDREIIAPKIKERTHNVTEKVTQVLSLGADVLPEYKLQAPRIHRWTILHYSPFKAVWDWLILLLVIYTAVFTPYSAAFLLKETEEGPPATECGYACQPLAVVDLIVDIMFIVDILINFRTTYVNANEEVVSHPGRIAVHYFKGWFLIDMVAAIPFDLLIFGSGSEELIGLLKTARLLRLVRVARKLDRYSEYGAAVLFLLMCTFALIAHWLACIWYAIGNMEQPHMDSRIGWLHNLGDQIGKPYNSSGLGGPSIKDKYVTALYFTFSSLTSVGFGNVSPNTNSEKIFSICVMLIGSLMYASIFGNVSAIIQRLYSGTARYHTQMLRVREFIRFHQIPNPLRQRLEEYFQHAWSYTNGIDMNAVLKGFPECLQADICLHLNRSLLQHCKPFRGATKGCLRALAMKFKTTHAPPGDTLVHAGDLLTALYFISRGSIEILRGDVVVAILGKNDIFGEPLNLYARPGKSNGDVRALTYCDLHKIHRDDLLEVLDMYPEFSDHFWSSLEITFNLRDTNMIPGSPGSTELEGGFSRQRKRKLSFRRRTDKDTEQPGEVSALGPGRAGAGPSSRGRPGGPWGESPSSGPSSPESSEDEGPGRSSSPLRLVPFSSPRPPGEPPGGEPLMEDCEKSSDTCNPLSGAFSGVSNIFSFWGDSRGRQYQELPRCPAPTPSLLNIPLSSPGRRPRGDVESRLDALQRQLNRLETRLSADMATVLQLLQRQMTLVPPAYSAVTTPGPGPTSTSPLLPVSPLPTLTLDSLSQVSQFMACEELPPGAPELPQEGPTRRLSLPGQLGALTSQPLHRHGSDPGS

Row | SMILES | pIC50 [1] | pIC50 [2] | % block ([3]; concentration 300 nM) [%] | % block ([3]; concentration 3000 nM) [%]
1 | Cc1ncn(CC(=O)N2CCN(c3sc(C(F)(F)F)nc3-c3cnc(C(F)(F)F)nc3)C[C@@H]2CO)n1 [Example 16, 1-{(R)-2-Hydroxymethyl-4-[2-trifluoromethyl-4-(2-trifluoromethyl-pyrimidin-5-yl)-thiazol-5-yl]-piperazin-1-yl}-2-(3-methyl-[1,2,4]triazol-1-yl)-ethanone] | 8.41 | 6.27 | 1 | 1
2 | Cc1nc(C)n(CC(=O)N2CCN(c3sc(C(F)(F)F)nc3-c3cnc(C4CC4)nc3)C[C@H]2CO)n1 [Example 8, 1-{(S)-4-[4-(2-Cyclopropyl-pyrimidin-5-yl)-2-trifluoromethyl-thiazol-5-yl]-2-hydroxymethyl-piperazin-1-yl}-2-(3,5-dimethyl-[1,2,4]triazol-1-yl)-ethanone] | 8.00 | 5.49 | 19 | 54
3 | CCc1ccn(CC(=O)N2CCN(c3sc(C(F)(F)F)nc3-c3cnc(C(F)(F)F)nc3)C[C@H]2CCO)n1 [Example 40, 2-(3-Ethyl-pyrazol-1-yl)-1-{(R)-2-(2-hydroxy-ethyl)-4-[2-trifluoromethyl-4-(2-trifluoromethyl-pyrimidin-5-yl)-thiazol-5-yl]-piperazin-1-yl}-ethanone] | 8.80 | 7.49 | 5 | 47
4 | Cc1ncn(CC(=O)N2CCN(c3sc(C(F)(F)F)nc3-c3cnc(C(F)(F)F)nc3)C[C@H]2CCO)n1 [Example 35, 1-{(R)-2-(2-Hydroxy-ethyl)-4-[2-trifluoromethyl-4-(2-trifluoromethyl-pyrimidin-5-yl)-thiazol-5-yl]-piperazin-1-yl}-2-(3-methyl-[1,2,4]triazol-1-yl)-ethanone] | 8.54 | 6.99 | 11 | 25
5 | CCOc1ncc(-c2nc(C(F)(F)F)sc2N2CCN(C(=O)Cn3nc(C)nc3C)[C@H](CO)C2)cn1 [Example 7, 2-(3,5-Dimethyl-[1,2,4]triazol-1-yl)-1-{(S)-4-[4-(2-ethoxy-pyrimidin-5-yl)-2-trifluoromethyl-thiazol-5-yl]-2-hydroxymethyl-piperazin-1-yl}-ethanone] | 8.51 | 5.64 | 24 | 45
6 | O=C(Cn1cnc(C2CC2)n1)N1CCN(c2sc(C(F)(F)F)nc2-c2cnc(C(F)(F)F)nc2)C[C@H]1CCO [Example 31, 2-(3-Cyclopropyl-[1,2,4]triazol-1-yl)-1-{(R)-2-(2-hydroxy-ethyl)-4-[2-trifluoromethyl-4-(2-trifluoromethyl-pyrimidin-5-yl)-thiazol-5-yl]-piperazin-1-yl}-ethanone] | 8.36 | 7.13 | 2 | 23
7 | O=C(Cn1cnc2ccccc21)N1CCN(c2sc(C(F)(F)F)nc2-c2cnc(C(F)(F)F)nc2)C[C@@H]1CO [Example 13, 2-Benzoimidazol-1-yl-1-{(R)-2-hydroxymethyl-4-[2-trifluoromethyl-4-(2-trifluoromethyl-pyrimidin-5-yl)-thiazol-5-yl]-piperazin-1-yl}-ethanone] | 8.92 | 5.98 | 5 | 17
8 | CC(C)(C)c1ncn(CC(=O)N2CCN(c3sc(C(F)(F)F)nc3-c3cnc(C(F)(F)F)nc3)C[C@H]2CCO)n1 [Example 30, 2-(3-tert-Butyl-[1,2,4]triazol-1-yl)-1-{(R)-2-(2-hydroxy-ethyl)-4-[2-trifluoromethyl-4-(2-trifluoromethyl-pyrimidin-5-yl)-thiazol-5-yl]-piperazin-1-yl}-ethanone] | 8.36 | 6.77 | −2 | 25
9 | O=C(Cn1cnc(-c2ccccc2)n1)N1CCN(c2sc(C(F)(F)F)nc2-c2cnc(C(F)(F)F)nc2)C[C@@H]1CO [Example 19, 1-{(R)-2-Hydroxymethyl-4-[2-trifluoromethyl-4-(2-trifluoromethyl-pyrimidin-5-yl)-thiazol-5-yl]-piperazin-1-yl}-2-(3-phenyl-[1,2,4]triazol-1-yl)-ethanone] | 7.38 | 5.48 | 6 | 41

Further lines, with some results ahead:

Row | pIC50 [1] | pIC50 [2] | SMILES | % block ([3]; concentration 300 nM) [%] | % block ([3]; concentration 3000 nM) [%]
10 | 6.29 | 5.19 | Cc1nc(-c2ncn(CC(=O)N3CCN(c4sc(C(F)(F)F)nc4-c4cnc(C(F)(F)F)nc4)C[C@@H]3CO)n2)no1 [Example 18, 1-{(R)-2-Hydroxymethyl-4-[2-trifluoromethyl-4-(2-trifluoromethyl-pyrimidin-5-yl)-thiazol-5-yl]-piperazin-1-yl}-2-[3-(5-methyl-[1,2,4]oxadiazol-3-yl)-[1,2,4]triazol-1-yl]-ethanone] | 6 | 13
11 | 8.17 | 6.38 | CC(C)(C)c1ncn(CC(=O)N2CCN(c3sc(C(F)(F)F)nc3-c3cnc(C(F)(F)F)nc3)C[C@H]2CO)n1 [Example 1, 2-(3-tert-Butyl-[1,2,4]triazol-1-yl)-1-{(S)-2-hydroxymethyl-4-[2-trifluoromethyl-4-(2-trifluoromethyl-pyrimidin-5-yl)-thiazol-5-yl]-piperazin-1-yl}-ethanone] | 2 | 12
12 | 8.26 | 6.80 | O=C(Cn1cnc(C2CCC2)n1)N1CCN(c2sc(C(F)(F)F)nc2-c2cnc(C(F)(F)F)nc2)C[C@H]1CCO [Example 29, 2-(3-Cyclobutyl-[1,2,4]triazol-1-yl)-1-{(R)-2-(2-hydroxy-ethyl)-4-[2-trifluoromethyl-4-(2-trifluoromethyl-pyrimidin-5-yl)-thiazol-5-yl]-piperazin-1-yl}-ethanone] | 4 | 38
13 | 9.15 | 6.70 | O=C(Cn1ccc2cc(F)ccc21)N1CCN(c2sc(C(F)(F)F)nc2-c2cnc(C(F)(F)F)nc2)C[C@@H]1CO [Example 14, 2-(5-Fluoro-indol-1-yl)-1-{(R)-2-hydroxymethyl-4-[2-trifluoromethyl-4-(2-trifluoromethyl-pyrimidin-5-yl)-thiazol-5-yl]-piperazin-1-yl}-ethanone] | 14 | 62
14 | 8.47 | 6.47 | CC(C)c1ncn(CC(=O)N2CCN(c3sc(C(F)(F)F)nc3-c3cnc(C(F)(F)F)nc3)C[C@@H]2CO)n1 [Example 11, 1-{(R)-2-Hydroxymethyl-4-[2-trifluoromethyl-4-(2-trifluoromethyl-pyrimidin-5-yl)-thiazol-5-yl]-piperazin-1-yl}-2-(3-isopropyl-[1,2,4]triazol-1-yl)-ethanone] | 5 | 11
15 | 8.34 | 6.11 | CCOc1ncc(-c2nc(C(F)(F)F)sc2N2CCN(C(=O)Cn3cnc(C(F)(F)F)n3)[C@H](CO)C2)cn1 [Example 6, 1-{(S)-4-[4-(2-Ethoxy-pyrimidin-5-yl)-2-trifluoromethyl-thiazol-5-yl]-2-hydroxymethyl-piperazin-1-yl}-2-(3-trifluoromethyl-[1,2,4]triazol-1-yl)-ethanone] | 13 | 23
